“Also recorded” adds a separate entry of the source. Read-outs that look alike come from different tables or passages of the source.
Columns and labels:
DO11.10 T cell clones = experiment: Ca2+ imaging with P2 receptor agonists; format: cell-based, mouse
ERK = ERK phosphorylation time course after CD3 stimulation, TCR signaling blocked with PP2 at 30 min; format: cell-based, mouse; details: for ERK phosphorylation / activity: added in combination with PP2
Experimental: (§1) After 30 min of stimulation, cells were either left untreated (first panel on the left), or treated with the src-like kinase inhibitor PP2 either alone (second panel) or in combination with oATP (third panel) or ARL (fourth panel).
(§2) In order to distinguish between TCR dependent and independent ERK activation, TCR signaling was blocked at 30 min after CD3 activation with the tyrosine kinase inhibitor PP2, which inhibits TCR dependent Ick/fyn src-like kinase activity.

CRAC channels = experiment: Ca2+ dependent CRAC inactivation, two sequential Ca2+ additions after tapsigargin store depletion (Fura-2); format: cell-based, mouse; details: in the presence of CCCP
Experimental: FIG. 1: Increased mitochondrial Ca^2+ buffering in crt^−/− T cells. • a) After ER Ca^2+ depletion with tapsigargin, CCE was induced in crt^−/− and crt^+/+ T cell clones by the addition of 0.5 mM Ca^2+ to the extracellular medium (see Example 1). After complete washout of extracellular Ca^2+, the mitochondrial Ca^2+ buffering was visualized by the addition of ionomycin. • b) Histograms representing mitochondrial Ca^2+ content after CCE with 0.5, 1 and 2 mM extracellular Ca^2+ in crt^−/− and crt^+/+ T cell clones. • c) Increased mitochondrial Ca^2+ buffering in crt^−/− T cells retards CRAG inactivation. Cells were treated with tapsigargin followed by two separate additions of Ca^2+ to the extracellular medium (see Example 1) (see also FIG. 2C). The rate of rise of cytosolic Ca^2+ concentration was calculated at the first and second addition of Ca^2+. […] (*, P<0.05, **, P<0.001, ***, P<0.0001)
FIG. 2: Reduced Ca^2+ in the ER, unaltered mitochondrial membrane potential and decreased CRAC inactivation in crt^−/− T cells. • a) The ER Ca^2+ content of Fura-2 loaded D011.10 TCR transgenic T cell clones was assessed by addition of the SERCA pump inhibitor tapsigargin to a medium devoid of Ca^2+ (see Example 1). The passive leak of Ca^2+ from the ER into the cytosol is seen as a slow transient rise in the cytosolic Ca^2+ concentration. […]

naïve CD4^+ T cells [1] = experiment: IL-2 ELISA in culture supernatants, plate-bound CD3 and CD28 stimulation; format: cell-based, mouse
Excerpt: An inhibitory effect of oATP on peripheral blood T cell proliferation has been described (Baricordi et al., Blood 87:682-690 (1996)). […] We therefore hypothesize that ATP released from activated T cell is part of an autocrine loop, which plays an essential role in productive T cell activation.

naive CD4 T cells = experiment: T cell proliferation by CFSE dilution, plate-bound CD3 and CD28 mAbs; format: cell-based, mouse; details: IL-2 at 250 U/ml; PMA
Egr2 and Egr3 = experiment: Real-time PCR of anergy related genes Egr2 and Egr3; format: cell-based, mouse; details: PMA together with oATP
Excerpt: NFAT nuclear translocation without concomitant MAPK activation, which can be obtained by ionomycin treatment, implements a transcriptional program leading to T cell anergy (Macian et al., Cell 109:719-731 (2002)). […] Then, we hypothesized that activation of T cells in the presence of oATP could induce T cell anergy. […] The effect of oATP was not due to altered turn-over of the TCR/CD3 complex at the cell surface, as determined by FACS analysis (data not shown).

ZAP-70 = ZAP-70 phosphorylation after CD3 stimulation, PP2 added at 30 min; format: cell-based, mouse; details: PP2 at 30 min after CD3 activation
Experimental: as §1, §2

MAPK = experiment: Protracted MAPK (p38, Erk) activation after 16 h CD3 stimulation; format: cell-based, mouse; details: crt^−/− T cells, CD3 antibodies 16 h
NFAT1 = NFAT1 nuclear localization after T cell stimulation; format: cell-based, mouse
Experimental: as §2
NFAT nuclear translocation without concomitant MAPK activation, which can be obtained by ionomycin treatment, implements a transcriptional program leading to T cell anergy (Macian et al., Cell 109:719-731 (2002)). […] Then, we hypothesized that activation of T cells in the presence of oATP could induce T cell anergy.

crt^−/− CD4^+ T cells [2] = system: crt^−/− CD4^+ T cells
naïve CD4^+ T cells [3] = experiment: ATP synthesis after T cell activation with CD3 antibodies; format: cell-based, mouse
Excerpt: CCE induced by antigenic activation of crt^−/− CD4^+ T cells might therefore be linked to a higher ATP production compared to crt^+/+ cells.

crt^−/− CD4^+ T cells [4] = experiment: Propidium iodide (PI) staining of treated cells
human T cells = experiment: Proliferation of CFSE-loaded T cells, plate-bound anti-CD3/28 (FACS); format: cell-based; details: 100 μM oATP or 200 μM of PX10 peptide, four days
Experimental: Our results point to a role for pannexin hemichannels in ATP release in T cells. […] CFSE-loaded human T cells were stimulated with plate-bound anti-CD3/28 antibodies in the presence of 100 μM oATP or 200 μM of PX10 peptide. Four days later, the proliferation was measured by FACS analysis.

mouse T cells = experiment: IL-2 secretion by ELISA; format: cell-based
T cell clones = experiment: Cellular ATP content by luciferase assay after TCR triggering; format: cell-based; details: 200 μM PX10 preincubation 30 minutes
Experimental: FIG. 10: The pannexin blocking peptide PX10 increases the intracellular ATP concentration upon TCR triggering.
Finally, we tested whether the inhibition of pannexin-mediated ATP release might lead to a fast accumulation of ATP following T cell activation. T cell clones were preincubated with 200 μM PX10 for 30 minutes. They were then stimulated with biotinylated anti-CD3 antibodies followed by crosslinking with strepavidine. Samples were collected at indicated time points, detergent-solubilized and frozen until their use in a standard luciferase assay to determine cellular ATP content.

Question: `CSc1nc(N)c2ncn([C@@H]3O[C@H](COP(=O)(O)OP(=O)(O)O)[C@@H](O)[C@H]3O)c2n1` [2MeSADP] was tested. Which “cells activated / responsive to P2 subtype preferring agonist” value (“cells activated / responsive” for short) (DO11.10 T cell clones) did it give?
Answer: Its value is 31%.

Question: With `CCN(CC)c1ncnc2c1ncn2[C@@H]1O[C@H](COP(=O)(O)OP(=O)(O)C(Br)(Br)P(=O)(O)O)[C@@H](O)[C@H]1O` [ARL67156] as the molecule, how does the “ERK phosphorylation / activity” value (ERK) read?
Answer: Its value is “increase”.

Question: And the “ERK phosphorylation / activity” value (ERK; listed as ARL)?
Answer: Its value is “increased”.

Question: For `Nc1ncnc2c1ncn2[C@@H]1O[C@H](COP(=O)(O)OP(=O)(O)OP(=O)(O)O)[C@@H](O)[C@H]1O` [ATP, adenosine triphosphate], which “cells with calcium rise” value (DO11.10 T cell clones; 1 mM ATP, Ca^2+ present in the extracellular medium) is on record?
Answer: The value was 52%.

Question: What about the cytosolic calcium rise (DO11.10 T cell clones; absence of extracellular Ca^2+) of the same molecule?
Answer: The cytosolic calcium rise was “moderate cytosolic calcium rise”.

Question: How did the “Ca^2+ dependent inactivation of CRAC channels, crt^−/− versus crt^+/+ cells” value (CRAC channels) turn out when `N#CC(C#N)=NNc1cccc(Cl)c1` [CCCP] was run?
Answer: Its value is “comparable”.

Question: `CSc1nc(N)c2ncn([C@@H]3O[C@H](COP(=O)(O)OP(=O)(O)OP(=O)(O)O)[C@@H](O)[C@H]3O)c2n1` [MeSATP] was tested. Which “cells activated / responsive” value (DO11.10 T cell clones) did it give?
Answer: Its value is 35%.

Question: Which results are given for `CCCCCCCCCCCCCC(=O)O[C@@H]1[C@@H](C)[C@@]2(O)[C@@H](C=C(CO)C[C@]3(O)C(=O)C(C)=C[C@@H]23)[C@@H]2C(C)(C)[C@]12OC(C)=O` [PMA, phorbol 12-myristate 13-acetate, reference compound]?
Answer: oATP and PPADS-dependent inhibition of IL-2 expression on addition of PMA (naïve CD4^+ T cells [1]; contemporaneous addition): rescued; oATP inhibition of T cell proliferation on addition of second agent (naive CD4 T cells): completely restored; Egr2 and Egr3 transcription (Egr2 and Egr3): robustly reduced

Question: With `CC(C)(C)n1nc(-c2ccc(Cl)cc2)c2c(N)ncnc21` [PP2] as the molecule, how does the “ERK phosphorylation at later time points” value (ERK; PP2 alone) read?
Answer: The value was “did not significantly affect; also recorded: less affected”.

Question: And the “TCR-dependent phosphorylation of ZAP-70” value (ZAP-70)?
Answer: Its value is “affected; also recorded: efficiently inhibited”.

Question: `Cc1nc(N=Nc2ccc(S(=O)(=O)O)cc2S(=O)(=O)O)c(COP(=O)(O)O)c(C=O)c1O` [PPADS] was tested. Which “prolonged activation of MAPK (p38 MAPK and Erk)” value (MAPK) did it give?
Answer: The value was “almost completely abolished”.

Question: What about the “nuclear localization of NFAT1” value (NFAT1) of the same molecule?
Answer: The value was “did not significantly affect”.

Question: What about the “ERK phosphorylation / activity” value (ERK) of the same molecule?
Answer: Its value is “significant inhibition”.

Question: What about the “IL-2 in the cell culture supernatant” value (naïve CD4^+ T cells [1]; versus untreated cells, 48 h) of the same molecule?
Answer: The value was “Analogous inhibition”.

Question: And the “cellular damage due to toxicity, PI staining versus untreated” value (crt^−/− CD4^+ T cells [2])?
Answer: Its value is “did not reveal any difference”.

Question: `CC[C@H]1/C=C/C=C/C[C@@H](C)[C@H](O)[C@@](C)(O)C(=O)[C@@H](C)[C@H](O)[C@@H](C)C(=O)[C@@H](C)[C@H](O)[C@@H](C)/C=C/C(=O)O[C@@H]2[C@H](C)[C@H](CC1)O[C@]1(CC[C@H](C)[C@H](C[C@@H](C)O)O1)[C@H]2C` [oligomycin] was tested. Which “activation induced ATP synthesis” value (naïve CD4^+ T cells [3]) did it give?
Answer: Its value is “abolished”.

Question: And the “prolonged activation of MAPK (p38 MAPK and Erk)” value (MAPK)?
Answer: Its value is “almost completely abolished”.

Question: What about the “nuclear localization of NFAT1” value (NFAT1) of the same molecule?
Answer: Its value is “did not significantly affect”.

Question: What about the “cellular damage due to toxicity, PI staining versus untreated” value (crt^−/− CD4^+ T cells [4]) of the same molecule?
Answer: Its value is “did not reveal any difference”.

Question: Which “cells activated / responsive” value (DO11.10 T cell clones) does the source give for `Nc1ncnc2c1ncn2[C@@H]1O[C@H](COP(=O)(O)CP(=O)(O)OP(=O)(O)O)[C@@H](O)[C@H]1O` [αβMeATP] here?
Answer: Its value is 18%.

Question: How did the “cells activated / responsive” value (DO11.10 T cell clones) turn out when BzATP was run?
Answer: Its value is 33%.

Question: With WRQAAFVDSY [PX10] as the molecule, how does the T cell proliferation (human T cells) read?
Answer: Its T cell proliferation is “comparably to oATP”.

Question: And the T cell proliferation (human T cells; listed as PX10 peptide)?
Answer: The T cell proliferation was “strongly inhibited”.

Question: What about the IL-2 secretion (mouse T cells) of the same molecule?
Answer: Its IL-2 secretion is “strongly inhibited”.

Question: What about the “intracellular ATP after TCR triggering” value (T cell clones) of the same molecule?
Answer: The value was “rapid intracellular rise of ATP; also recorded: increases”.

— patent US20110076258A1, “METHODS OF MODULATING T CELL- DEPENDENT IMMUNE RESPONSES” (Converge Biotech Inc., priority 2008, published 2011)
